Laboratory results as given in patent US12286401B2, “Small molecules that sensitize HIV-1 infected cells to antibody dependent cellular cytotoxicity” (THE TRUSTEES OF THE UNIVERSITY OF PENNSYLVANIA, priority 2018, dated 2025).

How the values were obtained:
Type in all cases: cell-based
[1] = test system: primary CD4 T cells infected with HIV-1CH58TF; test: Cell surface staining with A32-AF647 (State 2A, cluster A exposure); conditions: 50 μM compound
Method: FIGS. 14A-14D show the data for the cell surface staining with A32-AF647. Cells were then incubated with A32-AF647 together with 5 μg/ml 17b (FIG. 14A, FIG. 14B, 14C) or 1:1000 diluted HIV+ plasma from infected individuals (FIG. 14D) in the presence of DMSO, 50 μM (+)-BNM-III-170 or 50 μM (S)-MCG-IV-210 at 37° C. Mean fluorescence intensity (MFI) of A32-AF647 was measured by flow cytometry. FIG. 14E is a bar graph showing data for the VBE assay, comparing the binding capacity of different Abs, the relative ratio of the luciferase activity to the luciferase activity of 2G12. Data shown are the mean±SD of at least three independent experiments. Statistical significance was evaluated using Mann-Whitney unpaired t test (FIG. 14C) or Wilcoxon paired t test (FIG. 14D) (*, P<0.05; ns, not significant.).
To evaluate whether (S)-MCG-IV-210 was able to stabilize State 2A, primary CD4+ T cells were infected with the primary CH58 transmitted/founder (CH58 TF) virus and evaluated the exposure of the cluster A region with an Alexa-Fluor 647-conjugated A32 (A32-AF647) antibody in the presence or absence of CD4mc and the CoRBS 17b Ab, as reported. See, Richard, 2016, EbioMedicine doi:10.1016/j.ebiom.2016.09.004. […] Mean fluorescence intensity (MFI) of A32-AF647 was measured by flow cytometry. […]

[2] = test system: HIV-1CH58TF; test: Virus neutralization in TZM-bl assay; conditions: Human immunodeficiency virus 1; TZM-bl cells; read-out: IC50, inhibition of HIV-1CH58TF infection
Method: (§1) To evaluate the direct virus-neutralizing ability of the analogs, I, HIV-1CH58TF was incubated with indicated amounts of different compounds or DMSO for 1 hour at 37° C., then added to TZM-bl cells. After incubation for 48 h at 37° C., luciferase activity was measured. Relative infectivity was calculated as the percentage of the value seen in the absence of compound. To measure the ability of (S)-MCG-IV-210 to sensitize viral particles to neutralization by otherwise non-neutralizing 17b (FIG. 15F), HIV-1CH58TF was incubated with the indicated amounts of 17b in the presence of 0.5 μM (+)-BNM-III-170, 20 μM (S)-MCG-IV-210 or DMSO for 1 hour at 37° C., then added to TZM-bl cells. After incubation for 48 h at 37° C., luciferase activity was measured.
As a positive control, (+)-BNM-III-170 was used, which has been reported to inhibit HIV-1 infection at low micromolar concentrations. See, Melillo, ACS Med Chem Lett 7:330-334. […] While all tested MCG analogs also neutralized HIV-1CH58TF, they did so with only modest potency (FIG. 15E).

[3] = test system: HIV-1CH58TF; test: Sensitization of viral particles to neutralization by 17b (TZM-bl); conditions: sub-inhibitory concentrations (20 μM (S)-MCG-IV-210)
Method: as §1
Another well-documented antiviral property of CD4mc is their capacity to sensitize viral particles to neutralization by otherwise non-neutralizing antibodies. See, Madani, 2018, Nat. Commun. 9:2363; Madani, 2014, J. Virol. 88:6542-6555; and Madani, 2016, J. Virol., 90:5031-5046. (S)-MCG-IV-210 was tested to determine if this compound shared this property.

[4] = test system: HIV-1CH58TF Env on virions; test: Virus-based ELISA (VBE) virus capture assay

**Q.** For `NCCNC(=O)N1CCC[C@H](C(=O)Nc2ccc(Cl)c(F)c2)C1` [(S)-MCG-IV-210], which “recognition of infected cells by A32-AF647 with addition of 17b” value ([1]; 5 μg/ml 17b, 37° C.) is on record?
**A.** significantly enhanced

**Q.** What about the “binding of infected cells by A32-AF647 in the presence of HIV+ plasma” value ([1]; 1:1000 diluted HIV+ plasma) of the same compound?
**A.** significantly enhanced binding

**Q.** And the IC50 [2]?
**A.** 6.97 µM

**Q.** What about the “neutralization by 17b of viral particles sensitized with compound” value [3] of the same compound?
**A.** potently neutralized

**Q.** And the “17b-mediated capture of virions” value ([4]; 50 μM compound)?
**A.** dramatic increase

**Q.** What about the “virion capture by the A32 and C11 Cluster A antibodies” value ([4]; 50 μM compound in combination with 5 μg/ml 17b) of the same compound?
**A.** permit virion capture
